Tests used:
[1] = target: T1, glucocorticoid receptor (Rattus norvegicus, UniProt P06536); experiment: Receptor binding affinity, glucocorticoid receptor (competitive binding, thymus cytosol); conditions: Dexamethasone = 100%; thymus cytosol of adrenalectomized rat; tracer 3H-dexamethasone
T1 construct: receptors in the cytosol of animal target organs; from tissue; host or cells: thymus cytosol of the adrenalectomized rat
T1 sequence (P06536 1-795): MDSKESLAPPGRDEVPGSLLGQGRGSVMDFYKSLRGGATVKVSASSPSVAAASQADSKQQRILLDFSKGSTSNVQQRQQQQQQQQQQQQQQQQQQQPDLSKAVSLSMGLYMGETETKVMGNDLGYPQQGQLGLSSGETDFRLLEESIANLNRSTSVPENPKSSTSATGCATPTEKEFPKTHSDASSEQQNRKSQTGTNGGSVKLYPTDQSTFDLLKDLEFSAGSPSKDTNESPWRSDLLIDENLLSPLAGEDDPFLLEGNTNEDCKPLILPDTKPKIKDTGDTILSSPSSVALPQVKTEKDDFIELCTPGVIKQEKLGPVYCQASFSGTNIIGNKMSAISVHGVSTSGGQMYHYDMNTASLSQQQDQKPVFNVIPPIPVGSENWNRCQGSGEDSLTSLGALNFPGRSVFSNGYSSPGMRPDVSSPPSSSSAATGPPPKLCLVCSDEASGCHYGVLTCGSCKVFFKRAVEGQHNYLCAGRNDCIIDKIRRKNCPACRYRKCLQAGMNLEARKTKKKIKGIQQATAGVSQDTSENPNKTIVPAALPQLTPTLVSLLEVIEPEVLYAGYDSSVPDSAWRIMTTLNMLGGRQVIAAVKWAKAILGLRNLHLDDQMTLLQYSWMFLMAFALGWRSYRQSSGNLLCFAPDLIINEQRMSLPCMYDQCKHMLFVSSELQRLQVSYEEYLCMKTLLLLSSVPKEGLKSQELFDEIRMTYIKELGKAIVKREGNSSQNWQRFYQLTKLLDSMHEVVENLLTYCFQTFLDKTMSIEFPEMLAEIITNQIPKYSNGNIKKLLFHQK
Experimental: (§1) Measurement of the receptor binding affinity
(§2) The receptor binding affinity was determined by competitive binding of a specifically binding ^3H-labeled hormone (tracer) and the compound to be tested to receptors in the cytosol of animal target organs. Receptor saturation and reaction equilibrium were aimed at here. The following incubation conditions were chosen:
Glucocorticoid receptor: Thymus cytosol of the adrenalectomized rat. Thymi stored at −30° C.
Tracer: ^3H-dexamethasone, 20 nM.
Reference substance: dexamethasone.
(§3) After an incubation of receptor fraction, tracer and competitor for 18 h at 0-4° C., the bound and free steroid were separated by mixing in active carbon/dextran (1%/0.1%), centrifuging off and measuring the receptor-bound ^3H activity in the supernatant.

[2] = system: guinea pig in cycle; experiment: Antiluteolysis test/ovulation inhibition test in the guinea pig in cycle; format: in vivo
Experimental: Antiluteolysis test/ovulation inhibition test in the guinea pig in cycle: This test is based on the fact that progesterone at the end of the cycle stimulates uterine prostaglandin secretion. In the guinea pig, the inhibition of this function leads to a persistence of the corpora lutea (antiluteolysis). […] This test thus allows the therapy-relevant typing of progesterone antagonists as ? pure” or ? agonistic” substances. Guinea pigs are treated with the test substance on day 10 to day 17 of the cycle. The progesterone concentrations in the serum are determined on day 10 before substance treatment and on the following days until autopsy ([…]., Beier, […]., Crundel, M. et al. in Current Concepts in Fertility Regulation and Reproduction, (eds). Puri, C. P. and Van Look, P. F. H. (1994) 303-328).

[3] = system: early pregnancy in the rat; experiment: Inhibition of early pregnancy in the rat (early abortive action); format: in vivo; conditions: s.c., day 5-7 of pregnancy
Experimental: Inhibition of early pregnancy in the rat Female rats weighing 180-200 g were mated in the proestrus stage. On detection of sperm in the vaginal region on the next day, this is set as day 1 (d=1) of the pregnancy. The rats are treated with test substance or vehicle using 0.2 ml of benzoyl benzoate/castor oil (1+4 v/v) subcutaneously from day 5 to day 7 (d5-d7); autopsy is carried oust painlessly on day d9. The uterus horns was [sic] dissected and examined for intact or damaged nidation sites.

[4] = target: T2, progesterone receptor (Oryctolagus cuniculus, UniProt P06186); experiment: Receptor binding affinity, progesterone receptor (competitive binding, uterus cytosol); conditions: Progesterone = 100%; uterus cytosol of estradiol-primed rabbit; tracer 3H-ORG 2058
T2 construct: receptors in the cytosol of animal target organs; from tissue; host or cells: uterus cytosol of the estradiol-primed rabbit
T2 sequence (P06186 1-930): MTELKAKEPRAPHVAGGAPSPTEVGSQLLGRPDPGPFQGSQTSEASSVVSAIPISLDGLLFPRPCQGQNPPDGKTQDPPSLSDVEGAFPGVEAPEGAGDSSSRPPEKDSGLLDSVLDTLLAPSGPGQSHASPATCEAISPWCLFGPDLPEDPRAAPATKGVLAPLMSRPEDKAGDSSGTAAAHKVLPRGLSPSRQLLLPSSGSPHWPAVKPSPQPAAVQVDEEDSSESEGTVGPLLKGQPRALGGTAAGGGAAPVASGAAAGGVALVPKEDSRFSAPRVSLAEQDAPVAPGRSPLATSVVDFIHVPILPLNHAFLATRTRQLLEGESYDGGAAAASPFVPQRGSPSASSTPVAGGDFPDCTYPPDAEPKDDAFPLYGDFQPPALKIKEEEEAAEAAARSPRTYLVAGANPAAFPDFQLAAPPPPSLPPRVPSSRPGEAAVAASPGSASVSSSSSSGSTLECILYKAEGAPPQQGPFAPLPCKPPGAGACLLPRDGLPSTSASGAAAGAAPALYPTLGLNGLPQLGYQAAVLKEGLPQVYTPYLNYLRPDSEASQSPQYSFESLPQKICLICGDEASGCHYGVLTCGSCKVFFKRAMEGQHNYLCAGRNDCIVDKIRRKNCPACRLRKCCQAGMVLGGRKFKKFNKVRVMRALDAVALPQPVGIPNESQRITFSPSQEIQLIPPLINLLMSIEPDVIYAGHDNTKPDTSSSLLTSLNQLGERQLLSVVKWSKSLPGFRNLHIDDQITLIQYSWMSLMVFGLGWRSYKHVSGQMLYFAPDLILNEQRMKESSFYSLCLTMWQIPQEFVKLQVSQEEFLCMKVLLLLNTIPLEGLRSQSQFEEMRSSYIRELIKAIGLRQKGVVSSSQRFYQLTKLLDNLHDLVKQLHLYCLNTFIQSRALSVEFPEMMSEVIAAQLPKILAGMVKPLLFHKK
Experimental: as §1, §2
Progesterone receptor Uterus cytosol of the estradiol-primed rabbit, stored at −30° C.
Buffer for homogenization and incubation: TED buffer 20 mM tris/HCl, pH [sic]=7.4; 1 mM ethylenediamine tetracetate, 2 mM dithiothreitol) containing 250 mM sucrose.
Reference substance: progesterone.
as §3

| Relative molar binding affinity RBA (%) to the glucocorticoid receptor [1] | Relative molar binding affinity RBA (%) to the progesterone receptor [4] | SMILES | Inhibition of luteolysis / antiluteolytic activity (in words) ([2]; guinea pig in cycle) | Complete inhibition of pregnancy % ([3]; 0.3 mg/(animal × day)) | Complete inhibition of pregnancy % ([3]; 1 mg/(animal × day)) | Complete inhibition of pregnancy % ([3]; 3 mg/(animal × day)) | Prostaglandin / PGFM levels in the blood (in words) ([2]; guinea pig) | Effect on the vaginal epithelium (in words) ([2]; guinea pig in cycle) |
| --- | --- | --- | --- | --- | --- | --- | --- | --- |
| 685% | – | CC#C[C@]1(O)CC[C@H]2[C@@H]3CCC4=CC(=O)CCC4=C3[C@@H](c3ccc(N(C)C)cc3)C[C@@]21C [RU 486, mifepristone, reference compound] | slightly antiluteolytically active | 0% | 20% | 100% | – | – |
| 39% | 22% | CN(C)c1ccc([C@H]2C[C@]3(C)[C@@H](CC[C@]3(O)CCCO)[C@@H]3CCC4=CC(=O)CCC4=C32)cc1 [ZK 98299, onapristone, reference compound] | – | – | – | – | very low prostaglandin levels in the blood | induces proliferation and keratinization of the vaginal epithelium |

— patent publication US6365582B1, “S-substitute 11β-benzaldoxime-estra-4, 9-diene-carbonic acid thiolesters, method for the production thereof and pharmaceutical preparations containing these compounds” (Jenapharm GmbH & Co. KG, priority 1998, dated 2002)
